Results reported in patent US6399654B1, “Biflavanoids and derivatives thereof as antiviral agents” (priority 1995, dated 2002).
≈ marks a conversion by molar mass, not a printed value.

How the values were obtained:
[1] = system: Influenza A (H3N2) Beijing/32/92; assay: microbe, parasite or virus in culture; assay type: cell-based, influenza A virus; conditions: Influenza A virus, MDCK; Influenza A (H3N2) Beijing/32/92; read-out: Neutral Red EC50
HIV-1 (strain LAV-1) = assay: microbe, parasite or virus in culture; assay type: cell-based
in vitro = conditions: dog
[2] = Cytotoxicity in uninfected PHA-stimulated human PBM cells; conditions: human

SMILES: O=c1cc(-c2ccc(O)c(-c3c(O)cc4oc(-c5ccc(O)cc5)cc(=O)c4c3O)c2)oc2cc(O)cc(O)c12 [Robustaflavone (3), robustaflavone]
- EC50 [1]: 1.8 µg/mL (≈ 3.34 µM)
- anti-HIV-1 activity in PBM cells (in words) (HIV-1 (strain LAV-1)): inactive
- EC50 (HIV-1 (strain LAV-1); Human immunodeficiency virus 1, PBMC, human PBM cells infected with HIV-1 (strain LAV), read-out: Ant-HIV-1 in PBM cells EC50): > 100 µM
- Selective Index (SI) (HIV-1 (strain LAV-1); PBM cells): <1
- IC50 (in vitro; CPE Inhibition IC50 (50% cell inhibitory (cytotoxic) concentration), Influenza A (H1N1) test): 18 µg/mL (≈ 33.4 µM)
- IC50 (in vitro; CPE Inhibition IC50 (cytotoxic), Influenza A (H3N2) test): 32 µg/mL (≈ 59.4 µM)
- IC50 (in vitro; CPE Inhibition IC50 (cytotoxic), Influenza B test): ~100 µg/mL (≈ 186 µM)
- IC50 [2]: 77 µM
